Measured values taken from patent US20220305178A1, “CANCER TREATMENT BY IN VITRO AMINO ACID DEPRIVATION” (YUANHENG BIOMEDICAL CO., LTD., priority 2021, published 2022).

What was measured:
[1] = Modified peritoneal dialysis of peritoneal fluid (RPMI 1640 diluent) with Asparaginase in the dialysate (Example 3); type: biochemical
Method: (§1) RPMI 1640 Medium was ten times diluted to obtain 1 L of RPMI 1640 diluent with Dianeal PD-2 (Peritoneal Dialysis Solution) and to serve as a peritoneal fluid for the control group 2. 1 L and 2 L of the same RPMI 1640 diluent was prepared for the Experimental group 2 and Experimental group 3, respectively.
(§2) The flow rate or circulation speed of the dialysate was 250 ml/min. Before the peritoneal fluid (RPMI 1640 diluent) entered the dialysis machine, RPMI 1640 diluent was also used to clean the circulation pipeline of the dialysis machine, to achieve the required equilibrium of the artificial kidney, and to get rid of all bubbles in the artificial kidney. Besides, the artificial kidneys of the control group 2 and the experimental group 2 were NV-15U with the effective membrane area of 1.5 m^2; and the artificial kidney of the experimental group 3 was NV-21U with the effective membrane area of 2.1 m^2.
(§3) The dialysate is DIANEAL PD-2 Peritoneal Dialysis Solution with 1.5% Dextrose (Baxter). The target amino acid is Asparagine (Asn), and the concentration of Asparaginase in the dialysate is 1 K.U./ml in the Experimental groups 2 & 3. No Asparaginase was added in the control group 2.
(§4) The dialysis temperature was set to be 37° C. The peritoneal fluid (RPMI 1640 diluent) was first pumped into slot A for temporary storage and then entered the artificial kidney. After peritoneal fluid (RPMI 1640 diluent) left the artificial kidney, peritoneal fluid (RPMI 1640 diluent) further entered slot B for temporary storage, and then left the dialysis machine, e.g. the peritoneal fluid (RPMI 1640 diluent) was pumped back to the peritoneal cavity of the patient. The concentrations of amino acids in the peritoneal fluid before and after dialysis were studied by using Amino Acid Analysis Systems (Waters UPLC® Amino Acid Analysis (AAA) Solution) and the result was shown in Table 3 to Table 5.

[2] = Modified peritoneal dialysis with artificial kidneys of different effective membrane areas (Example 4); type: biochemical; conditions: for Arg (%) of the peritoneal fluid / Arg (μM) of the peritoneal fluid: non-target amino acid
Method: as §1, §2, §3, §4
Example 4 was carried out with the method the same as Example 3 except that the artificial kidneys with different effective membrane areas were adopted. The concentrations of amino acids in the peritoneal fluid before and after dialysis were studied and the result was shown in Table 6.

[3] = Modified hemodialysis of simulated blood with Asparaginase in the dialysate, amino acids by UPLC; type: biochemical, pig; conditions: for concentration of Asn of the simulated blood / concentration of Arg of the simulated blood / concentration of Gln of the simulated blood / concentration of Met of the simulated blood / concentration of Ser of the simulated blood: Experimental group 1, Asparaginase 1 K.U./ml in dialysate; for concentration of Arg of the simulated blood / concentration of Gln of the simulated blood / concentration of Met of the simulated blood / concentration of Ser of the simulated blood: non-target amino acid
Method: 900 ml of pig's blood and 100 ml of Gibco Roswell Park Memorial Institute (RPMI) 1640 Medium (RPMI 1640 Medium) were mixed to obtain a diluted pig's blood. The diluted pig's blood was further added with 1.8 mg/ml EDTA-K^2+, 0.05% sodium azide; and 132 μl of Heparin with the concentration of 5000 U/ml to obtain a simulated blood, wherein the concentration of EDTA-K^2+ of the simulated blood was […].
The dialysis machine is Toray TR-321. The dialysate for extracorporeal circulation was triple the amount of the simulated blood and was 3000 ml, and the flow rate of dialysate was 500 ml/min. Before the simulated blood entered the dialysis machine, 1X PBS was used to clean the circulation pipeline of the dialysis machine, to achieve the required balance of the artificial kidney (Polyflux 17L), and to get rid of all bubbles in the artificial kidney, and the circulation speed was 250 ml/min. Besides, the effective membrane area of the artificial kidney is 1.7 m^2.
The dialysate consisted of Buffer A (hemodialysis concentrate No. 16, purchased from Taiwan Biotech Co., LTD), Buffer B (Sodium Bicarbonate Concentrate 8.4%, purchased from Fressenius Medical Care Ag, 61348 Bad Homburg, Germany) and R.O. water, wherein the volume ratio of Buffer A, Buffer B and R.O. water is 1:1.225:32.775.
The target amino acid is Asparagine (Asn), and the rest are non-target amino acids. The 3000 ml dialysate was added with 3 ml of Asparaginase with the concentration of 1000 K.U./ml (LEUNASE®) in the Experimental group 1, so the concentration of Asparaginase in the dialysate is 1 K.U./ml. No Asparaginase was added in the Control group 1.
The conductivity of the dialysate was adjusted to about 14 mS/cm. The dialysis temperature was set to be 37° C. When the pressure of the circulation pipeline, the temperature and the conductivity of the dialysate reached the desirable value and were stable, a green light signaled to indicate that hemodialysis was ready. The simulated blood was pumped into the circulation pipeline and entered the artificial kidney. Besides, the simulated blood was further added with Heparin with the concentration of 5000 U/ml at the flow rate of 4.4 ml/hour before the simulated blood entered the artificial kidney. The concentrations of amino acids in the simulated blood before and after dialysis were detected by ultra performance liquid chromatography (UPLC) and the results were shown in Table 1 and Table 2.

[4] = dialyzer BG-1.6U (1.6 m^2), dialysis time 0 min
[5] = dialyzer BG-1.6U (1.6 m^2), dialysis time 3 min
[6] = dialyzer BG-1.6U (1.6 m^2), dialysis time 5 min
[7] = dialyzer BG-1.6U (1.6 m^2), dialysis time 10 min
[8] = dialyzer BG-1.6U (1.6 m^2), dialysis time 20 min
[9] = dialyzer BG-1.8U (1.8 m^2), dialysis time 0 min
[10] = dialyzer BG-1.8U (1.8 m^2), dialysis time 3 min
[11] = dialyzer BG-1.8U (1.8 m^2), dialysis time 5 min
[12] = dialyzer BG-1.8U (1.8 m^2), dialysis time 10 min
[13] = dialyzer BG-1.8U (1.8 m^2), dialysis time 20 min
[14] = dialyzer polyflux-140H (1.4 m^2), dialysis time 0 min
[15] = dialyzer polyflux-140H (1.4 m^2), dialysis time 3 min
[16] = dialyzer polyflux-140H (1.4 m^2), dialysis time 5 min
[17] = dialyzer polyflux-140H (1.4 m^2), dialysis time 10 min
[18] = dialyzer polyflux-140H (1.4 m^2), dialysis time 20 min

concentration of Asn of the peritoneal fluid ([1]; experimental group 2, Asparaginase 1 K.U./ml in dialysate, NV-15U 1.5 m^2, dialysis time 0 min): 27.284 µM
concentration of Asn of the peritoneal fluid ([1]; experimental group 2, Asparaginase 1 K.U./ml in dialysate, NV-15U 1.5 m^2, dialysis time 3 min): 23.254 µM
concentration of Asn of the peritoneal fluid ([1]; experimental group 2, Asparaginase 1 K.U./ml in dialysate, NV-15U 1.5 m^2, dialysis time 5 min): 9.088 µM
concentration of Arg of the peritoneal fluid ([1]; experimental group 2, Asparaginase 1 K.U./ml in dialysate, NV-15U 1.5 m^2, non-target amino acid, dialysis time 0 min): 102.6 µM
concentration of Arg of the peritoneal fluid ([1]; experimental group 2, Asparaginase 1 K.U./ml in dialysate, NV-15U 1.5 m^2, non-target amino acid, dialysis time 3 min): 90.0 µM
concentration of Arg of the peritoneal fluid ([1]; experimental group 2, Asparaginase 1 K.U./ml in dialysate, NV-15U 1.5 m^2, non-target amino acid, dialysis time 5 min): 70.5 µM
dialysis time within which Arginine (Arg) is lower to 50% of the original concentration ([1]; experimental group 2, NV-15U 1.5 m^2): ≤ 10 min
concentration of Asparagine (Asn) relative to original ([1]; experimental group 2, within 5 mins of dialysis): less than 50%
concentration of Asn of the peritoneal fluid ([1]; experimental group 3, Asparaginase 1 K.U./ml in dialysate, NV-21U 2.1 m^2, dialysis time 0 min): 30.674 µM
concentration of Arg of the peritoneal fluid ([1]; experimental group 3, Asparaginase 1 K.U./ml in dialysate, NV-21U 2.1 m^2, non-target amino acid, dialysis time 0 min): 83.86 µM
concentration of Arg of the peritoneal fluid ([1]; experimental group 3, Asparaginase 1 K.U./ml in dialysate, NV-21U 2.1 m^2, non-target amino acid, dialysis time 3 min): 70.12 µM
concentration of Arg of the peritoneal fluid ([1]; experimental group 3, Asparaginase 1 K.U./ml in dialysate, NV-21U 2.1 m^2, non-target amino acid, dialysis time 5 min): 37.31 µM
concentration of Arg of the peritoneal fluid ([1]; experimental group 3, Asparaginase 1 K.U./ml in dialysate, NV-21U 2.1 m^2, non-target amino acid, dialysis time 10 min): 19.99 µM
dialysis time within which Arginine (Arg) is lower to 50% of the original concentration ([1]; experimental group 3, NV-21U 2.1 m^2): ≤ 5 min
dialysis time within which Asparagine (Asn) is undetectable ([1]; experimental group 3, NV-21U 2.1 m^2, peritoneal fluid, LOD of Asparagine 5 μM): ≤ 3 min
concentration of Asn of the simulated blood ([3]; Polyflux 17L 1.7 m^2, dialysis time 0 min): 41.8 µM
concentration of Asn of the simulated blood ([3]; Polyflux 17L 1.7 m^2, dialysis time 3 min): 32.3 µM
concentration of Asn of the simulated blood ([3]; Polyflux 17L 1.7 m^2, dialysis time 5 min): 24.2 µM
concentration of Arg of the simulated blood ([3]; dialysis time 0 min): 212.4 µM
concentration of Gln of the simulated blood ([3]; dialysis time 0 min): 381.8 µM
concentration of Met of the simulated blood ([3]; dialysis time 0 min): 38.5 µM
concentration of Ser of the simulated blood ([3]; dialysis time 0 min): 159.8 µM
concentration of Arg of the simulated blood ([3]; dialysis time 3 min): 83.0 µM
concentration of Gln of the simulated blood ([3]; dialysis time 3 min): 147.5 µM
concentration of Met of the simulated blood ([3]; dialysis time 3 min): 16.0 µM
concentration of Ser of the simulated blood ([3]; dialysis time 3 min): 67.7 µM
concentration of Arg of the simulated blood ([3]; dialysis time 5 min): 74.6 µM
concentration of Gln of the simulated blood ([3]; dialysis time 5 min): 131.5 µM
concentration of Met of the simulated blood ([3]; dialysis time 5 min): 14.4 µM
concentration of Ser of the simulated blood ([3]; dialysis time 5 min): 63.2 µM
concentration of Arg of the simulated blood ([3]; dialysis time 10 min): 16.9 µM
concentration of Gln of the simulated blood ([3]; dialysis time 10 min): 24.2 µM
concentration of Met of the simulated blood ([3]; dialysis time 10 min): 3.7 µM
concentration of Ser of the simulated blood ([3]; dialysis time 10 min): 17.5 µM
concentration of Arg of the simulated blood ([3]; dialysis time 20 min): 14.7 µM
concentration of Gln of the simulated blood ([3]; dialysis time 20 min): 18.2 µM
concentration of Met of the simulated blood ([3]; dialysis time 20 min): 3.8 µM
concentration of Ser of the simulated blood ([3]; dialysis time 20 min): 20.0 µM
concentration of Arg of the simulated blood ([3]; dialysis time 30 min): 14.3 µM
concentration of Gln of the simulated blood ([3]; dialysis time 30 min): 18.3 µM
concentration of Met of the simulated blood ([3]; dialysis time 30 min): 3.5 µM
concentration of Ser of the simulated blood ([3]; dialysis time 30 min): 17.8 µM
dialysis time within which Asparagine (Asn) is undetectable ([3]; Experimental group 1, simulated blood, LOD of Asparagine 5 μM): ≤ 10 min
Substance: Asparaginase
concentration of non-target amino acid maintained ([2]; Example 4, artificial kidneys 1.4 to 1.8 m^2): about 50%
Asn (%) of the peritoneal fluid [2, 4]: 100%
Asn (μM) of the peritoneal fluid [2, 4]: 45.5 µM
Asn (%) of the peritoneal fluid [2, 5]: 73.90%
Asn (μM) of the peritoneal fluid [2, 5]: 33.6 µM
Arg (%) of the peritoneal fluid [2, 4]: 100%
Arg (μM) of the peritoneal fluid [2, 4]: 95.3 µM
Arg (%) of the peritoneal fluid [2, 5]: 86.3%
Arg (μM) of the peritoneal fluid [2, 5]: 82.2 µM
Arg (%) of the peritoneal fluid [2, 6]: 74.8%
Arg (μM) of the peritoneal fluid [2, 6]: 71.3 µM
Arg (%) of the peritoneal fluid [2, 7]: 65.8%
Arg (μM) of the peritoneal fluid [2, 7]: 62.7 µM
Arg (%) of the peritoneal fluid [2, 8]: 49.7%
Arg (μM) of the peritoneal fluid [2, 8]: 47.4 µM
Asn (%) of the peritoneal fluid [2, 9]: 100%
Asn (μM) of the peritoneal fluid [2, 9]: 36.7 µM
Arg (%) of the peritoneal fluid [2, 9]: 100%
Arg (μM) of the peritoneal fluid [2, 9]: 89.0 µM
Arg (%) of the peritoneal fluid [2, 10]: 75.1%
Arg (μM) of the peritoneal fluid [2, 10]: 66.8 µM
Arg (%) of the peritoneal fluid [2, 11]: 76.5%
Arg (μM) of the peritoneal fluid [2, 11]: 68.0 µM
Arg (%) of the peritoneal fluid [2, 12]: 61.5%
Arg (μM) of the peritoneal fluid [2, 12]: 54.7 µM
Arg (%) of the peritoneal fluid [2, 13]: 61.2%
Arg (μM) of the peritoneal fluid [2, 13]: 54.4 µM
Asn (%) of the peritoneal fluid [2, 14]: 100%
Asn (μM) of the peritoneal fluid [2, 14]: 36.9 µM
Asn (%) of the peritoneal fluid [2, 15]: 85.8%
Asn (μM) of the peritoneal fluid [2, 15]: 31.6 µM
Asn (%) of the peritoneal fluid [2, 16]: 62.3%
Asn (μM) of the peritoneal fluid [2, 16]: 23.0 µM
Arg (%) of the peritoneal fluid [2, 14]: 100%
Arg (μM) of the peritoneal fluid [2, 14]: 93.7 µM
Arg (%) of the peritoneal fluid [2, 15]: 93.6%
Arg (μM) of the peritoneal fluid [2, 15]: 87.6 µM
Arg (%) of the peritoneal fluid [2, 16]: 84.8%
Arg (μM) of the peritoneal fluid [2, 16]: 79.4 µM
Arg (%) of the peritoneal fluid [2, 17]: 71.4%
Arg (μM) of the peritoneal fluid [2, 17]: 66.9 µM
Arg (%) of the peritoneal fluid [2, 18]: 57.9%
Arg (μM) of the peritoneal fluid [2, 18]: 54.2 µM
